In ChEMBL document CHEMBL1201862, “PubChem BioAssay data set” (2004):
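A five-concentration, 48-hour dose response in 96-well plates underlies each endpoint, interpolated linearly between surrounding concentrations. GI50 = concentration required for 50% inhibition of growth.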 The source made the active and inactive calls. Rule as the data show it: active = GI50 up to about 1.1 µM and inactive = higher.

How the values were obtained:
Assay in all cases: NCI-60 cell line screen, 48 h
[1] = test system: SNB-19
[2] = test system: SF-268
[3] = test system: HOP-92
[4] = test system: HOP-62
[5] = test system: NCI-H226
[6] = test system: MCF7
[7] = test system: TK-10
[8] = test system: OVCAR-3
[9] = test system: UACC-257
[10] = test system: UO-31
[11] = test system: OVCAR-8
[12] = test system: A549
[13] = test system: PC-3
[14] = test system: NCI-H522
[15] = test system: MDA-MB-435
[16] = test system: MOLT-4
[17] = test system: SN12C
[18] = test system: UACC-62
[19] = test system: A498

| SMILES | GI50 [1] | GI50 [2] | GI50 [3] | GI50 [4] | GI50 [5] | GI50 [6] | GI50 [7] | GI50 [8] | GI50 [9] | GI50 [10] | GI50 [11] | GI50 [12] | GI50 [13] | GI50 [14] | GI50 [15] | GI50 [16] | GI50 [17] | GI50 [18] | GI50 [19] |
| --- | --- | --- | --- | --- | --- | --- | --- | --- | --- | --- | --- | --- | --- | --- | --- | --- | --- | --- | --- |
| CN(/N=C/c1cccc2cccnc12)c1ccc(Cl)cc1[N+](=O)[O-] | > 100 µM (inactive) | > 100 µM (inactive) | 31.7 µM (inactive) | > 100 µM (inactive) | > 100 µM (inactive) | 31.6 µM (inactive) | > 100 µM (inactive) | > 100 µM (inactive) | > 100 µM (inactive) | > 100 µM (inactive) | > 100 µM (inactive) | > 100 µM (inactive) | > 100 µM (inactive) | > 100 µM (inactive) | > 100 µM (inactive) | 76.7 µM (inactive) | > 100 µM (inactive) | > 100 µM (inactive) | > 100 µM (inactive) |
| C=CCc1cc(C(Cc2ccccc2)NC(C)C)cc(OCc2ccccc2)c1OCc1ccccc1 (stereo unspecified) | 15.3 µM (inactive) | 16 µM (inactive) | 12.5 µM (inactive) | 15.9 µM (inactive) | 17.7 µM (inactive) | 17.3 µM (inactive) | 17.1 µM (inactive) | 16.7 µM (inactive) | 18.8 µM (inactive) | 10.1 µM (inactive) | 17 µM (inactive) | 16.7 µM (inactive) | 15.3 µM (inactive) | 15.3 µM (inactive) | 15.7 µM (inactive) | 10.7 µM (inactive) | 15.6 µM (inactive) | 15.1 µM (inactive) | 15.3 µM (inactive) |
| CCc1cccc(C(C)C)c1NC(=O)C(=O)C1C(=O)Nc2ccccc2[S+]1[O-] (stereo unspecified) | > 100 µM (inactive) | > 100 µM (inactive) | > 100 µM (inactive) | > 100 µM (inactive) | > 100 µM (inactive) | > 100 µM (inactive) | > 100 µM (inactive) | > 100 µM (inactive) | > 100 µM (inactive) | > 100 µM (inactive) | > 100 µM (inactive) | > 100 µM (inactive) | > 100 µM (inactive) | > 100 µM (inactive) | > 100 µM (inactive) | > 100 µM (inactive) | > 100 µM (inactive) | > 100 µM (inactive) | > 100 µM (inactive) |
| O=C(OC12CC3CC(CC(C3)C1)C2)c1ccc(NCc2cc(O)ccc2O)cc1 | 2.31 µM (inactive) | 1.75 µM (inactive) | 0.34 µM (active) | 4.52 µM (inactive) | 1.33 µM (inactive) | 0.48 µM (active) | 0.885 µM (active) | 0.743 µM (active) | 1.24 µM (inactive) | 0.417 µM (active) | 1.1 µM (active) | 3.97 µM (inactive) | 0.667 µM (active) | 0.0776 µM (active) | 1.27 µM (inactive) | 0.0944 µM (active) | 1.42 µM (inactive) | 1.3 µM (inactive) | 1.87 µM (inactive) |
| OCCCNc1[nH]cnc2nncc1-2 | > 100 µM (inactive) | > 100 µM (inactive) | > 100 µM (inactive) | > 100 µM (inactive) | > 100 µM (inactive) | > 100 µM (inactive) | > 100 µM (inactive) | > 100 µM (inactive) | > 100 µM (inactive) | > 100 µM (inactive) | > 100 µM (inactive) | > 100 µM (inactive) | > 100 µM (inactive) | > 100 µM (inactive) | > 100 µM (inactive) | > 100 µM (inactive) | > 100 µM (inactive) | > 100 µM (inactive) | > 100 µM (inactive) |
| COC(=O)c1ccc(/C=C2\CCc3ccccc3C2=O)cc1 | > 100 µM (inactive) | > 100 µM (inactive) | > 100 µM (inactive) | > 100 µM (inactive) | > 100 µM (inactive) | > 100 µM (inactive) | > 100 µM (inactive) | > 100 µM (inactive) | > 100 µM (inactive) | > 100 µM (inactive) | > 100 µM (inactive) | > 100 µM (inactive) | > 100 µM (inactive) | 69.7 µM (inactive) | > 100 µM (inactive) | > 100 µM (inactive) | > 100 µM (inactive) | > 100 µM (inactive) | 34.4 µM (inactive) |
| O=C1c2ccc(O)cc2OC(c2cc(O)c(O)c(O)c2)C1O (stereo unspecified) [DIHYDROBINETIN] | 41.4 µM (inactive) | 34.1 µM (inactive) | > 100 µM (inactive) | 35.5 µM (inactive) | 39.1 µM (inactive) | 25.7 µM (inactive) | 23.6 µM (inactive) | 47.9 µM (inactive) | 34.8 µM (inactive) | 67.8 µM (inactive) | 22 µM (inactive) | > 100 µM (inactive) | > 100 µM (inactive) | 24.8 µM (inactive) | 19.8 µM (inactive) | 19.1 µM (inactive) | 20.4 µM (inactive) | 30.1 µM (inactive) | 28.1 µM (inactive) |
| Cc1ccc(C)n1-c1ccccc1C1C=Cn2c(=O)oc3c(OC(C)C)c(OC(C)C)c(O)c1c32 (stereo unspecified) | > 100 µM (inactive) | 43.8 µM (inactive) | 24.9 µM (inactive) | 73.5 µM (inactive) | 15.8 µM (inactive) | 16.6 µM (inactive) | 55.2 µM (inactive) | 27.5 µM (inactive) | 17.1 µM (inactive) | 12.7 µM (inactive) | 49.1 µM (inactive) | 16.5 µM (inactive) | 5.11 µM (inactive) | 7.06 µM (inactive) | 6.1 µM (inactive) | 6.84 µM (inactive) | 76.6 µM (inactive) | 22.8 µM (inactive) | 43.8 µM (inactive) |
| COC12C=CC(CC1)C(C)(C)C2=O (stereo unspecified) | > 100 µM (inactive) | > 100 µM (inactive) | > 100 µM (inactive) | > 100 µM (inactive) | > 100 µM (inactive) | > 100 µM (inactive) | > 100 µM (inactive) | > 100 µM (inactive) | > 100 µM (inactive) | > 100 µM (inactive) | > 100 µM (inactive) | > 100 µM (inactive) | > 100 µM (inactive) | > 100 µM (inactive) | > 100 µM (inactive) | > 100 µM (inactive) | > 100 µM (inactive) | > 100 µM (inactive) | > 100 µM (inactive) |
| O=C1c2cccnc2C(=O)c2c1nc1ccccc1c2-c1ccc2c3c(nc4ccccc42)C(=O)c2cccnc2-c13 | 1.84 µM (inactive) | 0.52 µM (active) | 10.5 µM (inactive) | 1.17 µM (inactive) | 0.859 µM (active) | 2.07 µM (inactive) | 2.76 µM (inactive) | 0.244 µM (active) | 2.04 µM (inactive) | 1.24 µM (inactive) | 0.37 µM (active) | 2.17 µM (inactive) | 1.44 µM (inactive) | 0.692 µM (active) | 1.87 µM (inactive) | 0.638 µM (active) | 0.912 µM (active) | 1.73 µM (inactive) | 2.69 µM (inactive) |
| Cc1cn(CCCC2=NCCCN2)c(=O)[nH]c1=O | > 100 µM (inactive) | > 100 µM (inactive) | > 100 µM (inactive) | > 100 µM (inactive) | > 100 µM (inactive) | > 100 µM (inactive) | > 100 µM (inactive) | > 100 µM (inactive) | > 100 µM (inactive) | > 100 µM (inactive) | > 100 µM (inactive) | > 100 µM (inactive) | > 100 µM (inactive) | > 100 µM (inactive) | > 100 µM (inactive) | > 100 µM (inactive) | > 100 µM (inactive) | > 100 µM (inactive) | > 100 µM (inactive) |
| Cc1c(-c2ccccc2)n[nH]c1NC1(C)C(=O)N(/N=C/c2ccccc2)N=C1c1ccccc1 (stereo unspecified) | > 100 µM (inactive) | > 100 µM (inactive) | > 100 µM (inactive) | > 100 µM (inactive) | > 100 µM (inactive) | 4.78 µM (inactive) | > 100 µM (inactive) | > 31.6 µM (inactive) | > 100 µM (inactive) | > 100 µM (inactive) | > 100 µM (inactive) | 7.4 µM (inactive) | 24.9 µM (inactive) | > 100 µM (inactive) | 52.7 µM (inactive) | 10.2 µM (inactive) | > 19.9 µM (inactive) | > 100 µM (inactive) | > 83.4 µM (inactive) |
| O=c1cc(CO)oc(C(O)c2ccccc2)c1O (stereo unspecified) | > 100 µM (inactive) | > 100 µM (inactive) | > 100 µM (inactive) | > 100 µM (inactive) | > 100 µM (inactive) | > 100 µM (inactive) | > 100 µM (inactive) | > 100 µM (inactive) | > 100 µM (inactive) | > 100 µM (inactive) | > 100 µM (inactive) | > 100 µM (inactive) | > 100 µM (inactive) | > 100 µM (inactive) | > 100 µM (inactive) | > 100 µM (inactive) | > 100 µM (inactive) | > 100 µM (inactive) | > 100 µM (inactive) |
| CC(C)c1ccc(C(c2c(O)oc3ccccc3c2=O)c2c(O)oc3ccccc3c2=O)cc1 | 20.6 µM (inactive) | 25.6 µM (inactive) | 7.85 µM (inactive) | 21.4 µM (inactive) | 20.6 µM (inactive) | 27.9 µM (inactive) | 24.6 µM (inactive) | 18.7 µM (inactive) | 21.3 µM (inactive) | 13.8 µM (inactive) | 19.1 µM (inactive) | 19.1 µM (inactive) | 19 µM (inactive) | 20 µM (inactive) | 20.4 µM (inactive) | 6.55 µM (inactive) | 19.4 µM (inactive) | 15.5 µM (inactive) | 17.7 µM (inactive) |
